# Literature values as cited in patent US8691803B2, “Process for the preparation of antibiotic compounds” (Savior Lifetec Corporation, priority 2011, dated 2014).
# Settings: storage; must be stored at a low temperature
structure (smiles),measurement,value
C[C@@H](O)[C@H]1C(=O)N2C(C(=O)O)=C(S[C@@H]3CN[C@H](C(=O)Nc4cccc(C(=O)O)c4)C3)[C@H](C)[C@H]12 [ertapenem],Temperature stability,unstable above −20 °C
